Literature values in patent publication EP4803073A2, “METHODS AND COMPOSITIONS FOR TREATMENT OF DISORDERS AMELIORATED BY MUSCARINIC RECEPTOR ACTIVATION” (Puretech Health LLC, priority 2009, dated 2011).

Key:
[1] = double-blind placebo controlled trial
[2] = phase I and subsequent trials
[3] = with the anticholinergic agent glycopyrrolate; escalating amounts of RS-86
[4] = given with the muscarinic agonist xanomeline; syncope is a side effect observed with xanomeline
[5] = clozapine-associated sialorrhea

For `CCCCCCOc1nsnc1C1=CCCN(C)C1` [xanomeline], the alleviation of schizophrenia [1] is listed as “alleviation of schizophrenia was observed” and the side effects [2] is listed as “unacceptable GI side effects”.
In the case of `CCN1C(=O)CC2(CCN(C)CC2)C1=O` [RS-86], the improvement in cognition [3] is given as “did not result in any improvement in cognition”.
In the case of `C[N+]1(C)[C@@H]2C[C@@H](OC(=O)[C@H](CO)c3ccccc3)C[C@H]1[C@@H]1O[C@@H]12` [methscopolamine], the effect on syncope [4] is given as “no effect on syncope”.
For `Clc1cccc(Cl)c1N=C1NCCN1` [clonidine], the “efficacy in reducing sialorrhea” value [5] is given as “shown efficacy in reducing sialorrhea in small scale trials”.
